Measured values reported in PubChem BioAssay AID2060494 (Molecular Pharmacology Branch, DTP, NCI, 2025).
Several values for one entry are separate records, joined by “and”; a condition that tells them apart may be missing. Equal entries are not always repeated.

Test system: 435261-313-R-J1-PDC complex spheroid viability
Experiment: Anticancer human tumor 435261-313-R-J1-PDC patient-derived colon adenocarcinoma cell line growth inhibition [GQUAD]
Details: for viability, T/C: stronger effect = lower value; active means viability on the fitted dose curve at most 10% of control; inactive means the rest
Excerpt: DNA G-quadruplex Stabilizer Agents in Combinations in Complex Spheroids
A high-throughput screen of multi-cell type tumor spheroids was designed to identify active combinations of DNA G-quadruplex stabilizer agents and targeted small molecules. Complex spheroids include a stromal component modeled by human endothelial cells (HUVEC) and fibroblasts modeled by human mesenchymal stem cells (MSCs). The concentration ranges selected for each drug and investigational agent were based upon clinically achievable concentrations if the clinical Cmax of the agent was known.
Compounds. The drugs and investigational agents: pidnarulex (CX-5461; NSC782164), APTO-253 (NSC789042), BRACO-19 (NSC847499), peposertib (NSC802822), ceralasertib (NSC780249), elimusertib (NSC800525), camonsertib (NSC841442), AZD-1390 (NSC803789), olaparib (NSC753686), talazoparib (NSC767125), ART-558 (NSC835418), sotorasib (NSC818433), MRTX-1133 (NSC836407), SN-38 (NSC673596), topotecan (NSC609699), etoposide (NSC141540), doxorubicin (NSC123127), gemcitabine (NSC613327), 5-fluorouracil (NSC19893), paclitaxel (NSC125973), vemurafenib (NSC761431), panobinostat (NSC761190), R-306465 (JNJ-16241199; NSC773264), adavosertib (NSC754352), TP-3654 (NSC805149), carboplatin (NSC241240), KSQ-4279 (NSC840948), and staurosporine (NSC755774) were obtained from the National Cancer Institute (NCI) Developmental Therapeutics Program Chemical Repository (34). The FDA-approved anticancer drug set is available from the NCI Developmental Therapeutics Program. […] The stock solutions were prepared in dimethyl sulfoxide (DMSO, Sigma-Aldrich, St. Louis, MO, cat. D2650) at 800-fold the tested concentration and stored at -70 degrees C prior to their use. All drugs and investigational agents were tested over a range starting from a high concentration at or near the clinical Cmax and decreasing in half-log increments. If the clinical Cmax for an agent had not been determined, the highest concentration tested was 10 microM.
2.3 Cell Culture. All cells were maintained in an incubator at 37 degrees C and 5% CO2 with 95% humidity. The PDC lines were cultured according to standard operating procedures established by the NCI PDMR. All PDCs were thawed and cultured in Matrigel-coated flasks prepared with a working solution of 1X Ham's F-12 nutrient mix, without supplementation (Invitrogen, cat. 11765054), 100 U/mL penicillin-streptomycin (Invitrogen, cat. 15140122), and 2.5% Matrigel (Corning Inc., cat. 354248) for the first three passages. The 857933-349-R-J2-PDC line was cultured in 6C/Colon 1B media, which includes advanced DMEM/F-12 (Thermo Fisher Scientific, cat. 12634028), 10 mM HEPES (Thermo Fisher Scientific, cat. 15630080), 1X GlutaMAX supplement (Thermo Fisher Scientific, cat. 35050061), 0.1 mg/mL primocin (InvivoGen, cat. ant-pm-2), 10% defined fetal bovine serum, heat inactivated (HyClone Laboratories Inc., cat. SH30070.03HI), 50% L-WRN conditioned media (ATCC, cat. CRL-3276), 1.25 mM N-Acetyl-L-cysteine (Sigma-Aldrich, cat. A9165), 10 mM nicotinamide (Sigma-Aldrich, cat. N0636), 1X B-27 supplement (Thermo Fisher Scientific, cat. 17504044), 1X N-2 supplement (Thermo Fisher Scientific, cat. 17502048), 10 microM Y-27632 dihydrochloride (Tocris Bioscience, cat. 1254), and 50 ng/mL human EGF recombinant protein (Thermo Fisher Scientific, cat. PHG0311). The 485176-168-R4-J1-PDC line was cultured in Panc media, which includes all 6C/Colon 1B media components plus 100 ng/mL human FGF-10 (Thermo Fisher Scientific, cat. 100-26), 500 nM SB-431542 (Selleckchem, cat. S1067), and gastrin (Tocris, cat. 3006).
[…]
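Further: spheroids exposed to the agents for seven days before readout.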
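Wherever viability, T/C is given: percent of vehicle control viability with DMSO wells as 100%.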

COc1cc(C2c3cc4c(cc3C(OC3OC5COC(C)OC5C(O)C3O)C3COC(=O)C23)OCO4)cc(OC)c1O (configuration not stated)
inactive: viability, T/C (compound 0.0316 µM) 118% and 96.2% | viability, T/C (compound 0.1 µM) 67.4% and 93.6% | viability, T/C (compound 0.316 µM) 83.6% and 91.3% | viability, T/C (compound 1 µM) 56.6% and 80.2% | viability, T/C (compound 3.16 µM) 62.7% and 78.5% | viability, T/C (compound 10 µM) 52.2% and 61.6%
> 10000 nM: IC50 (curve of compound)

COc1ccc([C@@H](O)c2cc(-c3ncnc4cc(N5CCOCC5)ccc34)c(F)cc2Cl)nn1
1930 nM and 2610 nM and 976 nM: IC50 (curve of compound)
inactive: viability, T/C (compound 0.0316 µM) 105% and 99% and 90.9% | viability, T/C (compound 0.1 µM) 69.6% and 82.1% and 74.6% | viability, T/C (compound 0.316 µM) 81.5% and 103% and 90.2% | viability, T/C (compound 1 µM) 62.6% and 71.3% and 49.3% | viability, T/C (compound 3.16 µM) 38.6% and 47.8% and 37.7% | viability, T/C (compound 10 µM) 30.6% and 31.7% and 25.6%

CC(=O)O[C@H]1C(=O)[C@@]2(C)[C@H]([C@H](OC(=O)c3ccccc3)[C@]3(O)C[C@H](OC(=O)[C@H](O)[C@@H](NC(=O)c4ccccc4)c4ccccc4)C(C)=C1C3(C)C)[C@]1(OC(C)=O)CO[C@@H]1C[C@@H]2O + CN(C)c1ccc(Nc2c3ccc(NC(=O)CCN4CCCC4)cc3nc3cc(NC(=O)CCN4CCCC4)ccc23)cc1
inactive: viability, T/C (second compound 0.0316 µM, first compound 0.0316 µM) 94.3% | viability, T/C (second compound 0.0316 µM, first compound 0.1 µM) 78.6% | viability, T/C (second compound 0.0316 µM, first compound 0.316 µM) 84.6% | viability, T/C (second compound 0.0316 µM, first compound 1 µM) 69.9% | viability, T/C (second compound 0.0316 µM, first compound 3.16 µM) 69.1% | viability, T/C (second compound 0.0316 µM, first compound 10 µM) 76.5% | viability, T/C (second compound 0.1 µM, first compound 0.0316 µM) 71.9% | viability, T/C (second compound 0.1 µM, first compound 0.1 µM) 72.5% | viability, T/C (second compound 0.1 µM, first compound 0.316 µM) 77.4% | viability, T/C (second compound 0.1 µM, first compound 1 µM) 62% | viability, T/C (second compound 0.1 µM, first compound 3.16 µM) 75.3% | viability, T/C (second compound 0.1 µM, first compound 10 µM) 70.5% | viability, T/C (second compound 0.316 µM, first compound 0.0316 µM) 72.5% | viability, T/C (second compound 0.316 µM, first compound 0.1 µM) 82.5% | viability, T/C (second compound 0.316 µM, first compound 0.316 µM) 73.7% | viability, T/C (second compound 0.316 µM, first compound 1 µM) 69.2% | viability, T/C (second compound 0.316 µM, first compound 3.16 µM) 68.4% | viability, T/C (second compound 0.316 µM, first compound 10 µM) 61.5% | viability, T/C (second compound 1 µM, first compound 0.0316 µM) 80.4% | viability, T/C (second compound 1 µM, first compound 0.1 µM) 61.5% | viability, T/C (second compound 1 µM, first compound 0.316 µM) 59.4% | viability, T/C (second compound 1 µM, first compound 1 µM) 63.5% | viability, T/C (second compound 1 µM, first compound 3.16 µM) 73.3% | viability, T/C (second compound 1 µM, first compound 10 µM) 63.6% | viability, T/C (second compound 3.16 µM, first compound 0.0316 µM) 52.3% | viability, T/C (second compound 3.16 µM, first compound 0.1 µM) 52.6% | viability, T/C (second compound 3.16 µM, first compound 0.316 µM) 48.6% | viability, T/C (second compound 3.16 µM, first compound 1 µM) 60.9% | viability, T/C (second compound 3.16 µM, first compound 3.16 µM) 52.8% | viability, T/C (second compound 3.16 µM, first compound 10 µM) 55.1% | viability, T/C (second compound 10 µM, first compound 0.0316 µM) 31.6% | viability, T/C (second compound 10 µM, first compound 0.1 µM) 19.9% | viability, T/C (second compound 10 µM, first compound 0.316 µM) 23.6% | viability, T/C (second compound 10 µM, first compound 1 µM) 21.2% | viability, T/C (second compound 10 µM, first compound 3.16 µM) 27.5% | viability, T/C (second compound 10 µM, first compound 10 µM) 16.8%
> 10000 nM: IC50 (curve of first compound, second compound 0.0316 µM) | IC50 (curve of first compound, second compound 0.1 µM) | IC50 (curve of first compound, second compound 0.316 µM) | IC50 (curve of first compound, second compound 1 µM) | IC50 (curve of first compound, second compound 3.16 µM)
< 31.6 nM: IC50 (curve of first compound, second compound 10 µM)

COc1cccc2c1C(=O)c1c(O)c3c(c(O)c1C2=O)CC(O)(C(=O)CO)CC3OC1CC(N)C(O)C(C)O1 (configuration not stated)
656 nM and 293 nM: IC50 (curve of compound)
active: viability, T/C (compound 3.16 µM) 2.3% and 1.87% | viability, T/C (compound 10 µM) 4.42% and 1.38%
inactive: viability, T/C (compound 0.0316 µM) 94.1% and 85% | viability, T/C (compound 0.1 µM) 67.5% and 76.3% | viability, T/C (compound 0.316 µM) 74.4% and 44% | viability, T/C (compound 1 µM) 37% and 26.8%

CCCS(=O)(=O)Nc1ccc(F)c(C(=O)c2c[nH]c3ncc(-c4ccc(Cl)cc4)cc23)c1F
4250 nM and 5710 nM: IC50 (curve of compound)
inactive: viability, T/C (compound 0.0316 µM) 105% and 95% | viability, T/C (compound 0.1 µM) 69.6% and 103% | viability, T/C (compound 0.316 µM) 118% and 139% | viability, T/C (compound 1 µM) 82.9% and 104% | viability, T/C (compound 3.16 µM) 63.1% and 88.8% | viability, T/C (compound 10 µM) 14.7% and 13.4%

CC1COCCN1c1cc(C2(S(C)(=N)=O)CC2)nc(-c2ccnc3[nH]ccc23)n1 (configuration not stated)
> 10000 nM and 2920 nM: IC50 (curve of compound)
inactive: viability, T/C (compound 0.0316 µM) 98.5% and 112% and 88.4% | viability, T/C (compound 0.1 µM) 87.1% and 109% and 69.1% | viability, T/C (compound 0.316 µM) 88.4% and 79.8% and 94% | viability, T/C (compound 1 µM) 83.2% and 81.4% (2×) | viability, T/C (compound 3.16 µM) 65.6% and 80.9% and 47.6% | viability, T/C (compound 10 µM) 51.2% and 79.8% and 42%
